pIC50: −log10 of the molar value. Calls of active or inactive are those of the source. The calls are words filed in the database; no cut-off is given here.
Species: Mus musculus
Assay: Ratio of quinone reductase specific activity in mouse Hepa1c1c7 cells to quinone reductase specific activity in mouse mutant BpRc1 cells
Type: cell-based
Settings: not given

Q: Which Ratio does the source give for O=C(/C=C/c1ccc2c(c1)no[n+]2[O-])c1ccc2ccccc2c1 here?
A: Its Ratio is 1.75.

Q: With O=C(/C=C/c1ccc2c(c1)no[n+]2[O-])c1ccccc1O as the molecule, how does the Ratio read?
A: The Ratio was 1.18.

Q: With Cc1c(/C=C/C(=O)c2ccccc2)no[n+]1[O-] as the molecule, how does the Ratio read?
A: Its Ratio is 1.34.

System: Rattus norvegicus
Assay: Toxicity in Wistar rat assessed as change in behaviors at 15 mg/kg/day, po for two weeks
Type: organism-based
Settings: in vivo

Q: For O=C(/C=C/c1ccccc1)c1ccccc1O [2'-HYDROXYCHALCONE], which Activity is on record?
A: Its Activity is “Non-toxic”.

Q: With COc1ccc(/C=C/C(=O)c2ccccc2)cc1 [4-METHOXY CHALCONE] as the molecule, how does the Activity read?
A: Its Activity is “Non-toxic”.

Q: Which Activity does the source give for O=C(/C=C/c1ccc(Br)cc1)c1ccccc1O here?
A: Its Activity is “Non-toxic”.

System: Rattus norvegicus
Assay: Toxicity in Wistar rat assessed as change in body weight at 15 mg/kg/day, po for two weeks
Type: organism-based
Settings: in vivo

Q: Which Activity does the source give for O=C(/C=C/c1ccccc1)c1ccccc1O [2'-HYDROXYCHALCONE] here?
A: The Activity was “Non-toxic”.

Q: Which Activity does the source give for COc1ccc(/C=C/C(=O)c2ccccc2)cc1 [4-METHOXY CHALCONE] here?
A: Its Activity is “Non-toxic”.

Q: With O=C(/C=C/c1ccc(Br)cc1)c1ccccc1O as the molecule, how does the Activity read?
A: Its Activity is “Non-toxic”.

System: not listed separately
Assay: Cytotoxicity against mouse mutant BpRc1 cells after 48 hrs by SRB assay
Type: cell-based
Settings: BPrc1, 48 h

Q: With CC(C)(C)c1cc(O)ccc1O [E319] as the molecule, how does the pIC50 read?
A: Its pIC50 is 4.22.

System: Rattus norvegicus
Assay: Induction of glutathione S-transferase activity in cytosolic fraction of Wistar rat liver at 15 mg/kg/day, po for two weeks using CDNB as substrate measured for 1 min relative to control
Type: functional
Settings: not given

Q: With O=C(/C=C/c1ccccc1)c1ccccc1O [2'-HYDROXYCHALCONE] as the molecule, how does the Activity read?
A: The Activity was “Active”.

Biological target: T1, Nuclear factor erythroid 2-related factor 2 (Mus musculus) (UniProt Q60795)
T1 sequence (whole entry): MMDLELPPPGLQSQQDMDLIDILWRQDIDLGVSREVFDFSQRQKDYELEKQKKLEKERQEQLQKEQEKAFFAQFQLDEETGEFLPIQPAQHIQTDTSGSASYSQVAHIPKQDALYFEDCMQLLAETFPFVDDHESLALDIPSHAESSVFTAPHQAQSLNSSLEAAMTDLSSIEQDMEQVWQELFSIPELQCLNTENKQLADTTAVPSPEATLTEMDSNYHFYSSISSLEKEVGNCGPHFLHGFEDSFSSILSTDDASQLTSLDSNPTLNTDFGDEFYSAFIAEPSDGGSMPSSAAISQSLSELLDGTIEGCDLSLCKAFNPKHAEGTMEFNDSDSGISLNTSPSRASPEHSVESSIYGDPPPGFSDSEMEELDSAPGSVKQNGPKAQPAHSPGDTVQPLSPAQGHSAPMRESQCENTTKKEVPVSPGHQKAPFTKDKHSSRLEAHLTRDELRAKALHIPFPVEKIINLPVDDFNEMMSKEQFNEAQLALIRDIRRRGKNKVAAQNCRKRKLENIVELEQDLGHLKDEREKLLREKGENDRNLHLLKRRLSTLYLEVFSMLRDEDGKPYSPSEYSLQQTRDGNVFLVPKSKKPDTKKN
Assay: Induction of Nrf2 nuclear translocation in mouse Hepa1c1c7 cells assessed as protein accumulation in nucleus at 20 uM by DAPI staining based immunofluorescence assay
Type: cell-based
Settings: not given

Q: With CC(C)(C)c1cc(O)ccc1O [E319] as the molecule, how does the Activity read?
A: The Activity was “Active”.

Species: Mus musculus
Assay: Induction of quinone reductase specific activity in mouse mutant BpRc1 cells expressing defective translocator receptor Arnt using 2,6-DCIP as substrate at 10 uM measured for 1 min relative to control
Type: cell-based
Settings: not given

Q: With O=C(/C=C/c1ccc2c(c1)no[n+]2[O-])c1ccc2ccccc2c1 as the molecule, how does the fold change (FC) read?
A: The fold change (FC) was 1.01.

Q: With O=C(/C=C/c1ccc2c(c1)no[n+]2[O-])c1ccccc1O as the molecule, how does the fold change (FC) read?
A: The fold change (FC) was 1.18.

Q: Which fold change (FC) does the source give for Cc1c(/C=C/C(=O)c2ccccc2)no[n+]1[O-] here?
A: Its fold change (FC) is 1.01.

System: not listed separately
Assay: Chemoprotective index, ratio of IC50 for mouse Hepa1c1c7 cells to CD for quinone reductase activity in mouse Hepa1c1c7 cells
Settings: not given

Q: Which Ratio does the source give for CC(C)(C)c1cc(O)ccc1O [E319] here?
A: The Ratio was 147.

System: not listed separately
Assay: Cytotoxicity against mouse Hepa1c1c7 cells after 48 hrs by SRB assay
Type: cell-based
Settings: Hepa-1c1c7, 48 h

Q: With CC(C)(C)c1cc(O)ccc1O [E319] as the molecule, how does the pIC50 read?
A: Its pIC50 is 3.83.

Species: Mus musculus
Assay: Induction of quinone reductase activity in mouse mutant BpRc1 cells using 2,6-DCIP as substrate measured for 1 min
Type: cell-based
Settings: not given

Q: With CC(C)(C)c1cc(O)ccc1O [E319] as the molecule, how does the CD read?
A: Its CD is 6 µM.

Species: Mus musculus
Assay: Induction of quinone reductase specific activity in mouse Hepa1c1c7 cells assessed as concentration required to double enzyme specific activity using 2,6-DCIP as substrate measured for 1 min
Type: cell-based
Settings: not given

Q: Which CD does the source give for CC(C)(C)c1cc(O)ccc1O [E319] here?
A: Its CD is 1 µM.

System: not listed separately
Assay: Toxicity in Wistar rat assessed as survival at 15 mg/kg/day, po for two weeks
Type: organism-based
Settings: in vivo

Q: Which survival at 2 weeks does the source give for O=C(/C=C/c1ccccc1)c1ccccc1O [2'-HYDROXYCHALCONE] here?
A: Its survival at 2 weeks is 100%.

Q: Which survival at 2 weeks does the source give for COc1ccc(/C=C/C(=O)c2ccccc2)cc1 [4-METHOXY CHALCONE] here?
A: The survival at 2 weeks was 100%.

Q: Which survival at 2 weeks does the source give for O=C(/C=C/c1ccc(Br)cc1)c1ccccc1O here?
A: Its survival at 2 weeks is 100%.

System: HT-29
Assay: Cytotoxicity against human HT-29 cells at 100 uM after 24 hrs by SRB assay
Type: functional, cell-based
Settings: not given

Q: With O=C(/C=C/c1ccc2c(c1)no[n+]2[O-])c1ccc2ccccc2c1 as the molecule, how does the Activity read?
A: The Activity was “Active”.

Q: With Cc1c(/C=C/C(=O)c2ccccc2)no[n+]1[O-] as the molecule, how does the Activity read?
A: The Activity was “Active”.

System: MCF7
Assay: Cytotoxicity against human MCF7 cells at 100 uM after 24 hrs by SRB assay
Type: functional, cell-based
Settings: not given

Q: With O=C(/C=C/c1ccc2c(c1)no[n+]2[O-])c1ccc2ccccc2c1 as the molecule, how does the Activity read?
A: Its Activity is “Active”.

Q: Which Activity does the source give for Cc1c(/C=C/C(=O)c2ccccc2)no[n+]1[O-] here?
A: The Activity was “Active”.

System: Salmonella typhimurium
Assay: Mutagenicity in Salmonella typhimurium TA98 assessed as revertant colonies at 6 to 500 ug/plate by Ames test in presence of mouse liver S9 fraction
Type: toxicity, organism-based
Settings: salmonella enterica subsp. enterica serovar typhimurium

Q: With O=C(/C=C/c1ccc2c(c1)no[n+]2[O-])c1ccccc1O as the molecule, how does the Activity read?
A: Its Activity is “Non-toxic”.

System: Salmonella typhimurium
Assay: Mutagenicity in Salmonella typhimurium TA98 assessed as revertant colonies at 6 to 500 ug/plate by Ames test in absence of mouse liver S9 fraction
Type: toxicity, organism-based
Settings: salmonella enterica subsp. enterica serovar typhimurium

Q: Which Activity does the source give for O=C(/C=C/c1ccc2c(c1)no[n+]2[O-])c1ccccc1O here?
A: Its Activity is “Non-toxic”.

Species: Mus musculus
Assay: Induction of quinone reductase specific activity in mouse Hepa1c1c7 cells using 2,6-DCIP as substrate at 10 uM measured for 1 min relative to control
Type: cell-based
Settings: not given

Q: With O=C(/C=C/c1ccc2c(c1)no[n+]2[O-])c1ccc2ccccc2c1 as the molecule, how does the fold change (FC) read?
A: The fold change (FC) was 1.77.

Q: With O=C(/C=C/c1ccc2c(c1)no[n+]2[O-])c1ccccc1O as the molecule, how does the fold change (FC) read?
A: Its fold change (FC) is 1.39.

Q: Which fold change (FC) does the source give for Cc1c(/C=C/C(=O)c2ccccc2)no[n+]1[O-] here?
A: The fold change (FC) was 1.35.

System: Salmonella typhimurium
Assay: Mutagenicity in Salmonella typhimurium TA98 assessed as revertant colonies at 0.02 to 2 ug/plate by Ames test in presence of mouse liver S9 fraction
Type: toxicity, organism-based
Settings: salmonella enterica subsp. enterica serovar typhimurium

Q: For Cc1c(/C=C/C(=O)c2ccccc2)no[n+]1[O-], which Activity is on record?
A: The Activity was “Non-toxic”.

System: Rattus norvegicus
Assay: Induction of quinone reductase activity in cytosolic fraction of Wistar rat liver at 15 mg/kg/day, po for two weeks using 2,6-DCIP as substrate measured for 1 min relative to control
Type: functional
Settings: not given

Q: With O=C(/C=C/c1ccccc1)c1ccccc1O [2'-HYDROXYCHALCONE] as the molecule, how does the Activity read?
A: The Activity was “Active”.

Q: Which Activity does the source give for COc1ccc(/C=C/C(=O)c2ccccc2)cc1 [4-METHOXY CHALCONE] here?
A: Its Activity is “Active”.

Q: Which Activity does the source give for O=C(/C=C/c1ccc(Br)cc1)c1ccccc1O here?
A: The Activity was 128%.

Species: Mus musculus
Assay: Ratio of induction of quinone reductase specific activity in mouse mutant BpRc1 cells to mouse Hepa1c1c7 cells
Type: cell-based
Settings: not given

Q: With CC(C)(C)c1cc(O)ccc1O [E319] as the molecule, how does the Ratio read?
A: Its Ratio is 6.

System: Salmonella typhimurium
Assay: Mutagenicity in Salmonella typhimurium TA98 assessed as revertant colonies at 0.02 to 2 ug/plate by Ames test in absence of mouse liver S9 fraction
Type: toxicity, organism-based
Settings: salmonella enterica subsp. enterica serovar typhimurium

Q: With Cc1c(/C=C/C(=O)c2ccccc2)no[n+]1[O-] as the molecule, how does the Activity read?
A: The Activity was “Non-toxic”.

System: not listed separately
Assay: Chemoprotective index, ratio of IC50 for mouse mutant BpRc1 cells to CD for quinone reductase activity in mouse mutant BpRc1 cells
Settings: not given

Q: For CC(C)(C)c1cc(O)ccc1O [E319], which Ratio is on record?
A: The Ratio was 10.
